# In US20250108048A1, “STING AGONIST COMPOUNDS AND CONJUGATES” (SUTRO BIOPHARMA, INC., priority 2023, published 2025):
# Legend:
# Type in all cases: cell-based
# [1] = target: T1, mSTING (Mus musculus, UniProt Q3TBT3); assay: THP1-Dual KI-mSTING reporter assay; design: host or cells: THP1-Dual KI-mSTING (from THP1-Dual KO-STING); settings: THP1-Dual KI-mSTING cells, 24 hours; read-out: Reporter assay EC50 (nM) THP-1 mSTING
# T1 sequence (Q3TBT3 1-378): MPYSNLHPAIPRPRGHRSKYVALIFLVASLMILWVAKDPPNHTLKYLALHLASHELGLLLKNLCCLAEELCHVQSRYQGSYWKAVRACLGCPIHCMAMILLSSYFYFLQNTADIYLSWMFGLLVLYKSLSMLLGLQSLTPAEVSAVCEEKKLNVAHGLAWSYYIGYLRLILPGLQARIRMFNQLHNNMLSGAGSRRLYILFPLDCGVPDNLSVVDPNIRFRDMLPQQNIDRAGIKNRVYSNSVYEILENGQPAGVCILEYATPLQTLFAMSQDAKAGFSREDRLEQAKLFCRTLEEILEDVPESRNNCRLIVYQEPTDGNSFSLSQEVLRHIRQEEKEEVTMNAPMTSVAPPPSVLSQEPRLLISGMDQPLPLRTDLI
# Method: (§1) The activities of the STING agonists to activate human or mouse STING pathways were evaluated in THP-1-Dual™, THP1-Dual™ KI-hSTING-R232, THP1-Dual™ KI-hSTING-H232 Cells and THP1-Dual™ KI-mSTING Cells. THP-1-Dual™ cells contains hSTING-HAQ haplotype and can be used to evaluate the activity of STING agonists by monitoring the activation of NF-κB pathway and the […] (IFN regulatory factor) pathways. THP1-Dual™ KO-STING cells were generated from THP1-Dual™ cells by stable knockout of the endogenous HAQ STING gene. THP1-Dual™ KI-hSTING-R232 cells, THP1-Dual™ KI-hSTING-H232 cells and THP1-Dual™ KI-mSTING cells were generated by transfecting THP1-Dual™ KO-STING cells with hSTING-R232 or hSTING-H232 or mSTING. Stimulating these reporter cells with a STING agonist activates TRF pathway and induces the production of a secreted Lucia luciferase in the cell culture medium, which can be determined using QUANTI-Luc™ reagent.
# (§2) THP-1-Dual™, THP1-Dual™ KI-hSTING-R232, THP1-Dual™ KI-hSTING-H232 and THP1-Dual™ KI-mSTING reporter cells were purchased from Invivogen and maintained in manufacture recommended culture medium with required supplemental antibiotics. On the day of assay, the cells were harvested with Accutase and counted by the Vi-CELL Cell Viability Analyzers. Cells were resuspended in HEK blue detection medium and a total of 10000 cells were seeded in each well of a 384-well flat bottom plate. Serial dilutions of STING agonists free drugs (1:3 serial dilution starting from 5 uM) was added into treatment wells. After incubation at 37° C. in a CO2 incubator for 24 hours, 20 μl of cell culture medium per well was transferred into a 384-well white (opaque) plate. 50 μl of QUANTI-Luc™ assay solution was then added to each well and the plate was immediately transferred to an ENVISION® plate reader to measure luminescence (Perkin-Elmer). Relative luminescence readings were converted to fold change of signal using untreated cells as controls. Data was fitted with non-linear regression analysis, using log (agonist) vs. response, variable slope, 4-parameter fit equation using GraphPad Prism. Data was expressed as fold change in signal vs. dose of STING agonist in nM with error bars indicating the Standard Deviation (SD) of the quadruplicates. There result was reported in Table 2 as EC50 (the midpoint of the curve, or concentration at which […] of the maximum effect was observed).
# [2] = target: T2, hSTING-HAQ haplotype (Homo sapiens, UniProt Q86WV6, G230A/H232R/R293Q/R71H); assay: THP-1-Dual reporter assay (endogenous hSTING-HAQ); settings: THP-1-Dual cells (hSTING-HAQ), 24 hours
# T2 construct: host or cells: THP-1-Dual
# Method: as §1
# as §2, with “Serial dilutions of STING agonists free drugs (1:3 serial dilution starting from 5 uM) was added into treatment wells.” left out
# [3] = target: T3, hSTING-R232 (Homo sapiens, UniProt Q86WV6, H232R); assay: THP1-Dual KI-hSTING-R232 reporter assay (IRF pathway, secreted Lucia luciferase); settings: THP1-Dual KI-hSTING-R232 cells, 24 hours; read-out: Reporter assay EC50 (nM) THP-1-R232
# T3 construct: host or cells: THP1-Dual KI-hSTING-R232 (from THP1-Dual KO-STING)
# Method: as §1
# as §2, with “Serial dilutions of STING agonists free drugs (1:3 serial dilution starting from 5 uM) was added into treatment wells.” left out
# [4] = target: hSTING H232 (Homo sapiens, UniProt Q86WV6); assay: THP1-Dual KI-hSTING-H232 reporter assay (IRF pathway, secreted Lucia luciferase); design: host or cells: THP1-Dual KI-hSTING-H232 (from THP1-Dual KO-STING); settings: THP1-Dual KI-hSTING-H232 cells, 24 hours; read-out: Reporter assay EC50 (nM) THP-1-H232
# Method: as §1
# as §2, with “Serial dilutions of STING agonists free drugs (1:3 serial dilution starting from 5 uM) was added into treatment wells.” left out
# T3 sequence (Q86WV6 whole entry H232R): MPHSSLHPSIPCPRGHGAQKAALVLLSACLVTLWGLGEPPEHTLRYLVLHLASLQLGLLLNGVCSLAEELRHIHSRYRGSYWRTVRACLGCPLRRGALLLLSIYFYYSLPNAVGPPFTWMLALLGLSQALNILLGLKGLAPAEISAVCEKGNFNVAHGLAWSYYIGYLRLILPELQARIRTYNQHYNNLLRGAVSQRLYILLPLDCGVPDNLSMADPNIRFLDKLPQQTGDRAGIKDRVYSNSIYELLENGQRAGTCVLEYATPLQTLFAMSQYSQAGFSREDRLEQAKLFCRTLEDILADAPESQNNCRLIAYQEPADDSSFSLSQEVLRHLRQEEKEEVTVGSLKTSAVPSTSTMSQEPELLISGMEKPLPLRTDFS
# T2 sequence (Q86WV6 whole entry R71H/G230A/H232R/R293Q): as the sequence (Q86WV6 whole entry H232R) above, with R71H, G230A, R293Q counted along it
# Sequence of hSTING H232 (Q86WV6 whole entry): as the sequence (Q86WV6 whole entry H232R) above, with R232H counted along it
Structure (SMILES),EC50 [1],EC50 [2],EC50 [3],EC50 [4]
CCn1nc(C)cc1C(=O)Nc1nc2cc(C(N)=O)cc(OC)c2n1C/C=C/Cn1c(NC(=O)Cc2cc(C)n(C)n2)nc2cc(C(N)=O)cc(OCCCN3CC4(CNCCO4)C3)c21 [Compound 9],> 150 nM,> 150 nM,> 150 nM,> 150 nM
CCc1nc(C)oc1C(=O)Nc1nc2cc(C(N)=O)cc(OCCCN3CC4(CNCCO4)C3)c2n1C/C=C/Cn1c(NC(=O)c2cc(C)nn2CC)nc2cc(C(N)=O)cc(OC)c21 [Compound 10],≤ 50 nM,≤ 50 nM,≤ 50 nM,≤ 50 nM
CCn1nc(C)cc1C(=O)Nc1nc2cc(C(N)=O)cc(OC)c2n1C/C=C/Cn1c(NC(=O)c2cc(C)nn2C)nc2cc(C(N)=O)cc(OCCCN3CC4(CNCCO4)C3)c21 [Compound 13],≤ 50 nM,≤ 50 nM,≤ 50 nM,≤ 50 nM
CCn1nc(C)cc1C(=O)Nc1nc2cc(C(N)=O)cc(OC)c2n1C/C=C/Cn1c(NC(=O)c2ccnn2CC)nc2cc(C(N)=O)cc(OCCCN3CC4(CNCCO4)C3)c21 [Compound 14],≤ 50 nM,≤ 50 nM,≤ 50 nM,≤ 50 nM
CCc1cc(C(=O)Nc2nc3cc(C(N)=O)cc(OCCCN4CC5(CNCCO5)C4)c3n2C/C=C/Cn2c(NC(=O)c3cc(C)nn3CC)nc3cc(C(N)=O)cc(OC)c32)n(C)n1 [Compound 15],> 150 nM,> 150 nM,> 150 nM,> 150 nM
CCn1nc(C)cc1C(=O)Nc1nc2cc(C(N)=O)cc(OC)c2n1C/C=C/Cn1c(NC(=O)c2cc(C)nn2CC)nc2cc(C(N)=O)cc(OCCCN3CC4(C3)CN(C(=O)[C@@H](N)CC(C)C)CCO4)c21 [Compound 16],≤ 50 nM,≤ 50 nM,≤ 50 nM,≤ 50 nM
CCc1nc(C)oc1C(=O)Nc1nc2cc(C(N)=O)cc(OCCCN3CC4(C3)CN(C(=O)[C@H](CC(C)C)NC)CCO4)c2n1C/C=C/Cn1c(NC(=O)c2cc(C)nn2CC)nc2cc(C(N)=O)cc(OC)c21 [Compound 19],≤ 50 nM,50 to 150 nM,≤ 50 nM,50 to 150 nM
CCc1nc(C)oc1C(=O)Nc1nc2cc(C(N)=O)cc(OCCCN3CC4(CNCCO4)C3)c2n1C/C=C/Cn1c(NC(=O)c2cc(C)nn2CC)nc2cc(C(N)=O)cnc21 [Compound 23],50 to 150 nM,50 to 150 nM,≤ 50 nM,≤ 50 nM
"CCc1nc(C)oc1C(=O)Nc1nc2cc(C(N)=O)cc3c2n1C/C=C/Cn1c(NC(=O)c2cc(C)nn2CC)nc2cc(C(N)=O)cc(c21)OCC1(CNC1)CO3 [Compound 26, (3E)-7-[(4-ethyl-2-methyl-oxazole-5-carbonyl)amino]-25-[(2-ethyl-5-methyl-pyrazole-3-carbonyl)amino]spiro[14,18-dioxa-1,6,8,24-tetrazapentacyclo[17.6.1.16,9.023,26.013,27]heptacosa-3,7,9,11,13 (27), 19 (26), 20,22,24-nonaene-16,3′-azetidine]-11,21-dicarboxamide]",50 to 150 nM,> 150 nM,≤ 50 nM,≤ 50 nM

# Now from value to compound:
EC50 [1],EC50 [2],EC50 [3],EC50 [4],Structure (SMILES)
> 150 nM,> 150 nM,> 150 nM,> 150 nM,CCn1nc(C)cc1C(=O)Nc1nc2cc(C(N)=O)cc(OC)c2n1C/C=C/Cn1c(NC(=O)Cc2cnc(C)o2)nc2cc(C(N)=O)cc(OCCCN3CC4(CNCCO4)C3)c21 [Compound 7]
≤ 50 nM,> 150 nM,≤ 50 nM,≤ 50 nM,CCn1nc(C)cc1C(=O)Nc1nc2cc(C(N)=O)cc(OC)c2n1C/C=C/Cn1c(NC(=O)c2oc(C)nc2C)nc2cc(C(N)=O)cc(OCCCN3CC4(CNCCO4)C3)c21 [Compound 11]
> 150 nM,> 150 nM,> 150 nM,> 150 nM,CCn1nc(C)cc1C(=O)Nc1nc2cc(C(N)=O)cc(OC)c2n1C/C=C/Cn1c(NC(=O)C23CCC(C)(CC2)CC3)nc2cc(C(N)=O)cc(OCCCN3CC4(CNCCO4)C3)c21 [Compound 12]
> 150 nM,50 to 150 nM,50 to 150 nM,> 150 nM,CCc1nc(C)oc1C(=O)Nc1nc2cc(C(N)=O)cc(OCCCN3CC4(C3)CN(C(=O)CNC)CCO4)c2n1C/C=C/Cn1c(NC(=O)c2cc(C)nn2CC)nc2cc(C(N)=O)cc(OC)c21 [Compound 18]
≤ 50 nM,50 to 150 nM,≤ 50 nM,50 to 150 nM,CCc1nc(C)oc1C(=O)Nc1nc2cc(C(N)=O)cc(OCCCN3CC4(C3)CN(C(=O)[C@H](N)CC(C)C)CCO4)c2n1C/C=C/Cn1c(NC(=O)c2cc(C)nn2CC)nc2cc(C(N)=O)cc(OC)c21 [Compound 20]
> 150 nM,> 150 nM,≤ 50 nM,50 to 150 nM,"CCn1nc(C)cc1C(=O)Nc1nc2cc(C(N)=O)cc3c2n1C/C=C/Cn1c(NC(=O)c2cc(C)nn2CC)nc2cc(C(N)=O)cc(c21)OCC1(CNC1)CO3 [Compound 24, (3E)-7,25-bis[(2-ethyl-5-methyl-pyrazole-3-carbonyl)amino]spiro[14,18-dioxa-1,6,8,24-tetrazapentacyclo[17.6.1.16,9.023,26.013,27]heptacosa-3,7,9,11,13 (27), 19 (26), 20,22,24-nonaene-16,3′-azetidine]-11,21-dicarboxamide; 2,2,2-trifluoroacetic acid]"
≤ 50 nM,> 150 nM,≤ 50 nM,≤ 50 nM,CCc1nc(C)oc1C(=O)Nc1nc2cc(C(N)=O)cc3c2n1C/C=C/Cn1c(NC(=O)c2oc(C)nc2CC)nc2cc(C(N)=O)cc(c21)OCC1(CNC1)CO3 [Compound 25]
